According to patent US20210046143A1, “METHOD FOR TREATMENT OF THE HUMAN BODY BY THERAPY BY ADMINISTERING A COMPOSITION COMPRISING A PLANT EXTRACT OF THE SPECIE HEDYCHIUM CORONARIUM” (Societe D'exploitation De Produits Pour Les Industries …, priority 2016, published 2021):

Assays:
Format in all cases: cell-based
[1] = system: normal human keratinocytes; test: ROS detection with H2DCFDA probe in normal human keratinocytes; conditions: 20 minutes
Source text: • 1)—Background Information The aim of the present evaluation was to evaluate the antioxidant and antipollution effects of the extract HCR, against oxidative stress in normal human cultured keratinocytes extracted from abdominal plastic surgery (donor), using the H2DCFDA probe. […] It is cell-permeant and stable. When it penetrates the cell, acetate groups are cleaved by intracellular esterases. The resulting product is the dichlorodihydrofluorescein (or H2DCF), non-fluorescent. […] The probe oxidation is not specific of one type of ROS. The fluorescence is detected at wavelengths of 490 nm (excitation) and 525 nm (emission). […] A XTT assay was previously performed, to check the cells viability, in order to determine the concentrations to be tested, as described in Example 2. • 2)—Evaluation of Antioxidant Effect (H2DCFDA Probe) Normal human keratinocytes were seeded in 96-well microplates and are then treated with the test compound to be tested for 24 hours, before adding the fluorescent probe for detection of ROS and stimulating or not by the pollutant or hydrogen peroxide. This test is based on the use of a detection system, a probe, which is degraded and fluoresces on contact with ROS. […] After incubation, fluorescence was read at 490 nm (excitation) and 525 nm (emission) wavelengths (Tecan Safire II reader). Data are expressed as RFU (fluorescence units). […]

[2] = system: mitochondria network of normal human fibroblasts (NHF); test: Mitochondrial network protection (MitoTracker staining) in UVA-irradiated fibroblasts; conditions: 500 μM, positive control
Procedure: b)-Normal human fibroblasts (NHF) extracted after plastic surgery from mammary skin dermis of a donor, were cultured as primary monolayers; a)-Fibroblasts were seeded into Petri dishes (at a cell density of 150,000 cells per dish, with a diameter of 60 mm, i.e. 7,700 NHF/cm^2), in the same medium as previously described (complete medium, i.e. with FBS), one day before treatment (incubation at 37° C.; 5% CO2). Each test compound concentration/dose (in one dish each) was then applied for 24 hours (in medium without sera; incubation at 37° C./5% CO2). […] b)-To evaluate the mitochondria staining, cells were incubated with a fluorescent probe (Invitrogen MitoTrackerTM). Cells were observed and photos were taken with x40 objective (Olympus […] microscope and […] Microvision software), with or without appropriate fluorescent filter. The photos allowed the visualization of the mitochondria network or of the whole cells, respectively. • 4)-Evaluation of the Effects on the Metabolic Activity (ATP & NAD^+/NADH Titrations)

[3] = system: lysosomes network of normal human fibroblasts (NHF); test: Lysosomal network protection (LysoTracker staining) in UVA-irradiated fibroblasts; conditions: 500 μM
Procedure: b)-Normal human fibroblasts (NHF) extracted after plastic surgery from mammary skin dermis of a donor, were cultured as primary monolayers; a)-Fibroblasts seeding was carried out as described in Example 2. b)-Cells were then incubated with a fluorescent probe (Invitrogen LysoTrackerTM). They were observed and photographed with x40 objective (Olympus CK40 microscope and […] Microvision software), with or without appropriate fluorescent filter. The photos allowed the visualization respectively of the lysosomes network or of the whole cells. c)-Fluorescence was quantified with Colombus software, by HCS Pharma (Rennes, France), as mean intensity (3 images for each condition). It is the mean value of intensity for each pixel of staining, contained in the cell area stained with LysoTracker (number of cells of each image is taken into account, as the final value is the mean of all cells values on the image). • 4)-Results

[4] = system: Normal human fibroblasts (NHF); test: Autophagic activity (MDC assay) in fibroblasts irradiated with blue light; conditions: for Decrease of autophagic activity of irradiated fibroblast cells: irradiated at 453 nanometers
Procedure: • 1)—Background Information The purpose of the study is to evaluate effects of one HCR extracts on autophagic activities of in fibroblast irradiated with 453 nanometers blue light. The cells (normal human fibroblasts or (NHF)) are cultured as primary monolayer. Product to be tested is applied during 24 hours before irradiation and the n the product to be tested is applied during 24 hours . then autophagic activity is measured (MDC). Lysosomes are cytoplasmic organelles that permit recycling of cellular materials that have exceeded their lifetime or are otherwise no longer useful. Their main function is to digest endogeneous or exogeneous substrates (so called autophagy) in eukaryotic cells. Lysosomes break down cellular waste products, fats, carbohydrates, proteins, and other macromolecules into small compounds, which are transferred back into the cytoplasm as new cell-building materials. Indeed, its lipid membrane contains many enzymes, proton pumps and transport proteins. Acid pH is regulated to allow optimum activities of acid hydrolases [1]-[2]. The fluorescent LysoTracker probe is structured to easily insert in living cells (a fluorophore is linked to a weak base that is only partially protonated at neutral pH). This characteristic permits to this labeling/staining to be very selective for acid organelles i.e. the lysosomes. Then, effects of radiations, like blue light for instance, at lysosomal level can be evaluated. Indeed, these radiations lead to free radical formation and affect the normal lysosomes network, its distribution in the cell space. This can be visualized with specific fluorescent probe LysoTracker. Autophagy is an eukaryotic cell process that allow cytoplasmic materials digestion in a vacuole that fuses with the lysosome. Indeed, lysosomes can directly incorporate cytoplasmic fragments (micro-autophagy), or via autophagic vacuoles, named autophagosomes (macro-autophagy, fusion of lysosome and autophagosome is so called autolysosome). Autophagy is an important mechanism that allows the cell to mobilize its energy stocks to defend and destroy its damaged organelles and then avoid serious effects. This process permits elimination and replacement of proteins and non-functional organelles, then to ensure homeostasis. It is an essential cytoprotective mechanism that allows adaptive cell responses to different kinds of stress or damages, as nutritive privation (starvation). So it is necessary to cell survival, but also to other fundamental physiologic phenomena as development, immunity, cell differentiation (including keratinocytes differentiation to corneocytes in the epidermis). It is involved in longevity control, aging, and development of pathologies as cancer or diabetes, infectious, metabolic, or neuro-degenerative diseases. […] Three concentrations of the extract HCR are tested (weight/volume % of dry extract or DE, as it is a liquid extract), each dose being evaluated as quintuplicate (5 wells). Irradiation dose of 453 nm blue light is 40 J/cm^2 (23 mW/cm^2 for 29 minutes). b)—Cells are seeded into 96-wells microplates (at a cell density of 10,000 cells per well, i.e. 30,000 NHF/cm2), 24 hours before treatment (incubation at 37° C./5% CO2). […] Fibroblasts are then treated again with the product (curative effect) for another 24 h (so the total application is 48 h). Cells are seeded in complete medium: Dulbecco's modified Eagle medium or DMEM (Gibco 41966), with antibiotics (Gibco 15140) and 10% of foetal bovine serum or FBS (Gibco 10270). Treatments are done in medium without FBS. Irradiation is done in PBS (phosphate buffer saline). All incubation/treatment times are at 37° C./5% CO2 (except irradiation, done at room temperature). At the end of treatment, wells are delicately rinsed (PBS) and 0.05 mM MDC probe is applied on cells (Sigma 30432) (37° C./5% CO2). After incubation during 30 minutes and washes, fluorescence is measured at 380 nm (excitation) and 525 nm (emission) wavelengths (Tecan Safire II machine). […]

[5] = system: ATP production by normal human fibroblasts (NHF); test: ATP titration in fibroblasts, UVA-irradiated or not; conditions: 500 μM
Procedure: (§1) a)—In order to check the effects of UV and the tested product on cells metabolism, ATP and NAD^+/NADH titrations were performed. • (i)—Cells were seeded into 96-wells plates (at a cell density of 5,000 cells per well, i.e. 15,000 NHF/cm^2), in the same medium as previously described, one day before treatment. Then the treatment and irradiation timing was the same: first application for twenty-four hours (in medium without sera), then UVA-irradiation or not (same dose) and finally a second treatment for another twenty-four hours. As formerly, from the beginning to the end of the experiment, cells were incubated at 37° C./5% CO2. […] Measured quantity of this product (absorbance) is proportional to total NAD (NAD^+ and NADH) in each sample. • (v)—The ATP assay kit is an ATP monitoring system based on firefly (Photinus pyralis) luciferase. Added luciferase and D-luciferin react with ATP in samples to produce light, which measure (luminescence) is proportional to the ATP concentration. • b)—Raw data of both ATP and NAD^+/NADH titrations, i.e. luminescence units (RLU) or OD measurements obtained for respective standards, were plotted on graphics to determine standard curves. Then, the concentrations of ATP or NAD^+/NADH measured in the samples were determined. Quantitative values of each condition were averaged. […]

[6] = system: NAD+/NADH production by normal human fibroblasts (NHF); test: NAD+/NADH titration in fibroblasts, UVA-irradiated or not; conditions: Vitamin C 500 μM, UVA-irradiated
Procedure: as §1

c1ccc2c(c1)cc1ccc3cccc4ccc2c1c34 [BaP, benzo(a)pyrene]
Stimulation of ROS production comparatively to non-stimulated acetone solvent control ([1]; BaP 36 μM): +141%

OO [hydrogen peroxide]
Stimulation of ROS production comparatively to unstimulated control ([1]; hydrogen peroxide 1 mM): +808%

O=C1O[C@H]([C@@H](O)CO)C(O)=C1O [vitamin C, L-ascorbic acid]
Protection of mitochondria network against UV (MitoTracker images) [2]: effects of UVA were less distinct | LysoTracker fluorescence mean intensity ([3]; highly significant): higher | Protection of lysosomes network against UV (LysoTracker images) ([3]; positive control): diminished the effects of UVA | RFU (means), MDC autophagic activity ([4]; 500 μMoles, irradiated (453 nanometers) NHF): 95 RFU | RFU (means), MDC autophagic activity ([4]; 500 μMoles, non irradiated NHF): 60 ^(***^) RFU | Decrease of autophagic activity of irradiated fibroblast cells ([4]; vitamin C): 14% | ATP synthesis, change compared to irradiated control [5]: +61% | NAD+/NADH release by UV-irradiated cells [6]: did not show expected positive effect

CC(=O)Oc1c(C)c(C)c2c(c1C)CCC(C)(CCC[C@H](C)CCC[C@H](C)CCCC(C)C)O2 (stereo partly drawn) [vitamin E, α-tocopherol acetate]
RFU (means), MDC autophagic activity ([4]; 200 μMoles, irradiated (453 nanometers) NHF): 86 ^(*^) RFU | RFU (means), MDC autophagic activity ([4]; 200 μMoles, non irradiated NHF): 76 ^(**^) RFU | Decrease of autophagic activity of irradiated fibroblast cells ([4]; vitamin E): 22%
